We go through four molecules from ChEMBL document CHEMBL1201862, “PubChem BioAssay data set” (2004).

Where “and” joins values, the source holds several entries; their conditions need not be identical. Equal values may be shown once.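 Exposure lasted 48 hours, with cells grown in 96-well plates and compounds tested at five concentrations. The concentration for 50% growth inhibition is given as GI50.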 Calls of active or inactive are those of the source. Rule as the data show it: active = GI50 up to about 1.1 µM and inactive = higher. Residues, ends and D or L forms follow the SMILES beside them. *: point of attachment. Boc = CC(C)(C)OC(=O)*; OBn = c1ccc(CO*)cc1

Among the test systems are UACC-257; MDA-MB-435; K562; SR; NCI-H23; MDA-MB-231; A498; DU-145; RXF 393; OVCAR-3; UO-31; SF-539; OVCAR-4; MDA-N; UACC-62; SF-295; HCT-15; SN12C; MCF7; HL-60.
Common to all, as to test: NCI anticancer screen, dose series, 48 h

For the molecule `CC(C)C(NC(=O)CNC(=O)C1CCCN1C(=O)C(NC(=O)OC(C)(C)C)C(C)C)C(=O)NCC(=O)OCc1ccccc1` (stereo not given) (Boc-VPGVG-OBn; configuration not given here), the GI50 in the assay on UACC-257 was > 100 µM (inactive); in the assay with MDA-MB-435, > 100 µM (inactive); with K562, 61.4 µM (inactive); with SR, > 100 µM (inactive); with NCI-H23 it was > 100 µM (inactive); in the assay with MDA-MB-231, > 100 µM (inactive). In addition, the GI50 in the assay with A498, in the assay on DU-145, in the assay on RXF 393, with OVCAR-3, in the assay on UO-31 and in the assay on SF-539 was > 100 µM (inactive) throughout. Moreover, the GI50 in the assay with OVCAR-4 was > 100 µM (inactive); with MDA-N, > 100 µM (inactive); in the assay on UACC-62, > 100 µM (inactive); in the assay on SF-295 it was > 100 µM (inactive); in the assay with HCT-15, over 100 µM; in the assay on SN12C it was > 100 µM (inactive). Further, the GI50 is > 100 µM (inactive) in the assay with MCF7; > 100 µM (inactive) and 72.8 µM (inactive) with HL-60.

Turning to `COc1cccc2c1cc([N+](=O)[O-])c1c(C(=O)O)cc3c(c12)OCO3` [ARISTOLOCHIC ACID], the GI50 with UACC-257 is 97.7 µM (inactive); in the assay on MDA-MB-435, 54.8 µM (inactive); in the assay with K562, 33.9 µM (inactive); with SR, 21.7 µM (inactive); in the assay with NCI-H23 it was 39.4 µM (inactive); with MDA-MB-231, 39.1 µM (inactive). Besides, the GI50 in the assay with A498 is 29.4 µM (inactive); with DU-145 it was 30.1 µM (inactive); in the assay on RXF 393, 23.4 µM (inactive); with OVCAR-3, 33.9 µM (inactive); in the assay on UO-31, 40.6 µM (inactive); with SF-539, 24.9 µM (inactive). Moreover, the GI50 is 32 µM (inactive) in the assay with OVCAR-4; > 100 µM (inactive) with MDA-N; 31.4 µM (inactive) with UACC-62; 32.4 µM (inactive) in the assay with SF-295; 18.2 µM in the assay on HCT-15; > 74.3 µM (inactive) in the assay with SN12C. In addition, the GI50 in the assay with MCF7 is 49.4 µM (inactive); in the assay on HL-60, 23.1 µM (inactive).

`Clc1ccc(COC(Cn2ccnc2)c2ccc(Cl)cc2Cl)cc1` (stereo not given) [ECONAZOLE]: the GI50 is 13.1 µM (inactive) in the assay on UACC-257; 11.8 µM (inactive) with MDA-MB-435; 4.76 µM (inactive) with K562; 5.32 µM (inactive) with SR; 13.1 µM (inactive) with NCI-H23; 13.3 µM (inactive) in the assay with MDA-MB-231. Besides, the GI50 with A498 is 14.2 µM (inactive); with DU-145, 16.5 µM (inactive); with RXF 393, 14.9 µM (inactive); in the assay with OVCAR-3 it was 10.9 µM (inactive); with UO-31, 4.13 µM (inactive); in the assay on SF-539, 18.8 µM (inactive). For the same molecule, the GI50 in the assay with OVCAR-4 is 11.8 µM (inactive); in the assay with MDA-N, 14.1 µM (inactive); in the assay on UACC-62, 12.1 µM (inactive); with SF-295, 10.8 µM (inactive); in the assay with HCT-15, 12.7 µM; in the assay on SN12C it was 12.5 µM (inactive). Besides, the values for the GI50 with MCF7 and in the assay on HL-60 were 12.4 µM (inactive) and 6.87 µM (inactive), respectively.

In the case of `COC(=O)C1=C(C)NC(C)=C(C(=O)OCCCN2CCC(c3ccccc3)(c3ccccc3)CC2)[C@H]1c1cccc([N+](=O)[O-])c1` [NIGULDIPINE], the GI50 with UACC-257 is 1.66 µM (inactive); in the assay with MDA-MB-435, 1.63 µM (inactive); in the assay with K562, 0.946 µM (active); in the assay with SR, 2.26 µM (inactive); with NCI-H23, 1.75 µM (inactive); in the assay on MDA-MB-231, 1.3 µM (inactive). The GI50 is 4.53 µM (inactive) with A498; 1.86 µM (inactive) in the assay on DU-145; 1.86 µM (inactive) with RXF 393; 1.46 µM (inactive) in the assay on OVCAR-3; 2 µM (inactive) in the assay with UO-31; 1.8 µM (inactive) in the assay with SF-539. Besides, the GI50 in the assay on OVCAR-4 is 1.55 µM (inactive); in the assay with MDA-N it was 1.97 µM (inactive); in the assay with UACC-62, 1.61 µM (inactive); with SF-295 it was 1.73 µM (inactive); in the assay with HCT-15, 1.94 µM; with SN12C it was 1.58 µM (inactive). For the same molecule, the GI50 with MCF7 was 2.07 µM (inactive); in the assay on HL-60, 1.16 µM (inactive).
